Results taken from patent US20030186997A1, “2,5-Dihydro-pyrazolo[3,4-d]pyrimidin-4-ones with an anticonsulsive action and methods for producing the same” (priority 2000, published 2003).

Experiments:
maximal electroshock = test: Anticonvulsant action, maximal electroshock (MES), mouse i.p.; type: in vivo; settings: ip, read-out: Action in % of the protected animals
Description: (§1) The compounds according to the invention were tested for their anticonvulsant action in vivo after i.p. administration to mice according to the international customary standard (Pharmac. Weekblad, Sc. Ed. 14, 132 (1992) and Antiepileptic Drugs, Third Ed., Raven Press, New York 1989) (Table 1). [table]

s.c. pentetrazole = test: Anticonvulsant action, s.c. pentetrazole (PTZ), mouse i.p.; type: in vivo; settings: ip, read-out: Action in % of the protected animals
Description: as §1

[1] = Octanol/water partition coefficient; type: physicochemical

Compound | melting point [°C] | also measured
O=c1c2c[nH]nc2ncn1Cc1ccccc1 [5-benzyl-2,5-dihydropyrazolo[3,4-d]pyrimidin-4-one, reference compound] |  | responders at 30 mg/kg (maximal electroshock): 100%; responders at 30 mg/kg (s.c. pentetrazole; dose 30 mg/kg): 100%; logP [1]: 0.47
NC(=O)N1c2ccccc2C=Cc2ccccc21 [Carbamazepine, reference compound] |  | responders at 100 mg/kg (maximal electroshock): 100%; responders at 100 mg/kg (s.c. pentetrazole): 0%
O=c1c2c[nH]nc2ncn1Cc1ccc(Cl)cc1 [Compound 2, 5-(4-chlorobenzyl)-2,5-dihydropyrazolo[3,4-d]pyrimidin-4-one] | 246 to 247 | responders at 100 mg/kg (maximal electroshock): 33%; logP [1]: 1.34
O=c1c2c[nH]nc2ncn1Cc1ccc(F)cc1 [Compound 3, 5-(4-fluorobenzyl)-2,5-dihydropyrazolo[3,4-d]pyrimidin-4-one] | 260 to 261 | responders at 100 mg/kg (maximal electroshock): 33%; responders at 300 mg/kg (s.c. pentetrazole): 60%; logP [1]: 0.62
O=c1c2c[nH]nc2ncn1Cc1ccc(Cl)cc1Cl [Compound 4, 5-(2,4-dichlorobenzyl)-2,5-dihydropyrazolo[3,4-d]-pyrimidin-4-one] | 236 to 237 | responders at 100 mg/kg (maximal electroshock): 100%; responders at 300 mg/kg (s.c. pentetrazole): 40%; logP [1]: 1.96
O=c1c2c[nH]nc2ncn1Cc1c(F)cccc1F [Compound 5, 5-(2,6-difluorobenzyl)-2,5-dihydropyrazolo[3,4-d]-pyrimidin-4-one] | 214 to 216 | responders at 30 mg/kg (maximal electroshock): 100%; logP [1]: 0.28
Cc1ccccc1Cn1cnc2n[nH]cc2c1=O [Compound 6, 5-(2-methylbenzyl)-2,5-dihydropyrazolo[3,4-d]pyrimidin-4-one] | 221 to 222 | responders at 100 mg/kg (maximal electroshock): 67%; responders at 300 mg/kg (s.c. pentetrazole): 100%; logP [1]: 1.36
Cn1cc2c(=O)n(Cc3ccccc3)cnc2n1 [Compound 13, 5-benzyl-2-methyl-2,5-dihydropyrazolo[3,4-d]pyrimidin-4-one] | 202 to 204 | responders at 100 mg/kg (maximal electroshock): 100%; logP [1]: 0.72
Cn1cc2c(=O)n(Cc3cccc(Cl)c3)cnc2n1 [Compound 19, 5-(3-chlorobenzyl) -2-methyl-2,5-dihydropyrazolo[3,4-d]-pyrimidin-4-one] | 169 to 170 | responders at 100 mg/kg (maximal electroshock): 100%; logP [1]: 1.56
Cn1cc2c(=O)n(Cc3ccc(F)cc3)cnc2n1 [Compound 31, 5-(4-fluorobenzyl)-2-methyl-2,5-dihydropyrazolo[3,4-d]-pyrimidin-4-one] | 216 to 217 | 
Cc1cc(C)c(Cn2cnc3nn(C)cc3c2=O)c(C)c1 [Compound 32, 5-(2,4,6-trimethylbenzyl)-2-methyl-2,5-dihydropyrazolo[3,4-d]pyrimidin-4-one] | 182 to 184 | 
Cn1cc2c(=O)n(Cc3ccccn3)cnc2n1 [Compound 33, 5-(2-pyridinylmethyl)-2-methyl-2,5-dihydropyrazolo[3,4-d]-pyrimidin-4-one] | 203 to 205 | 
Cn1cc2c(=O)n(Cc3ccncc3)cnc2n1 [Compound 34, 5-(4-pyridinylmethyl)-2-methyl-2,5-dihydropyrazolo[3,4-d]-pyrimidin-4-one] | 192 to 195 | 
CCn1cc2c(=O)n(Cc3c(F)cccc3Cl)cnc2n1 [Compound 35, 5-(2-chloro-6-fluorobenzyl)-2-ethyl-2,5-dihydropyrazolo[3,4-d]pyrimidin-4-one] | 207 to 209 | 
CCn1cc2c(=O)n(Cc3ccc(C)cc3)cnc2n1 [Compound 36, 5-(4-methylbenzyl)-2-ethyl-2,5-dihydropyrazolo[3,4-d]-pyrimidin-4-one] | 178 to 179 | 
CCn1cc2c(=O)n(Cc3ccccn3)cnc2n1 [Compound 38, 5-(2-pyridinylmethyl)-2-ethyl-2,5-dihydropyrazolo[3,4-d]-pyrimidin-4-one] | 190 to 191 | 
CCCn1cc2c(=O)n(Cc3c(F)cccc3Cl)cnc2n1 [Compound 39, 5-(2-chloro-6-fluorobenzyl)-2-propyl-2,5-dihydropyrazolo[3,4-d]pyrimidin-4-one] | 163 to 165 | 
CCCn1cc2c(=O)n(Cc3ccc(C)cc3)cnc2n1 [Compound 40, 5-(4-methylbenzyl)-2-propyl-2,5-dihydropyrazolo[3,4-d]-pyrimidin-4-one] | 157 to 158 | 
CCCn1cc2c(=O)n(Cc3c(F)cccc3F)cnc2n1 [Compound 41, 5-(2,6-difluorobenzyl)-2-propyl-2,5-dihydropyrazolo[3,4-d]pyrimidin-4-one] | 167 to 168 | 
CCCn1cc2c(=O)n(Cc3ccccn3)cnc2n1 [Compound 42, 5-(2-pyridinylmethyl)-2-propyl-2,5-dihydropyrazolo[3,4-d]-pyrimidin-4-one] | 179 to 181 | 
Cc1ccc(Cn2cnc3nn(C(C)C)cc3c2=O)cc1 [Compound 44, 5-(4-methylbenzyl)-2-isopropyl-2,5-dihydropyrazolo[3,4-d]-pyrimidin-4-one] | 145 to 147 | 

Compound | melting point [°C] | also measured
CC(C)n1cc2c(=O)n(Cc3c(F)cccc3F)cnc2n1 [Compound 45, 5-(2,6-difluorobenzyl)-2-isopropyl-2,5-dihydropyrazolo[3,4-d]pyrimidin-4-one] | 156 to 157 | 
CC(C)n1cc2c(=O)n(Cc3ccccn3)cnc2n1 [Compound 46, 5-(2-pyridinylmethyl)-2-isopropyl-2,5-dihydropyrazolo[3,4-d]pyrimidin-4-one] | 163 to 164 | 
CCCCn1cc2c(=O)n(Cc3c(F)cccc3Cl)cnc2n1 [Compound 47, 5-(2-chloro-6-fluorobenzyl)-2-butyl-2,5-dihydropyrazolo[3,4-d]pyrimidin-4-one] | 156 to 157 | 
CCCCn1cc2c(=O)n(Cc3ccc(C)cc3)cnc2n1 [Compound 48, 5-(4-methylbenzyl)-2-butyl-2,5-dihydropyrazolo[3,4-d]-pyrimidin-4-one] | 146 to 147 | 
CCCCn1cc2c(=O)n(Cc3c(F)cccc3F)cnc2n1 [Compound 49, 5-(2,6-difluorobenzyl)-2-butyl-2,5-dihydropyrazolo[3,4-d]-pyrimidin-4-one] | 151 to 152 | 
O=c1c2cn(-c3ccccc3)nc2ncn1Cc1c(F)cccc1Cl [Compound 50, 5-(2-chloro-6-fluorobenzyl)-2-phenyl-2,5-dihydropyrazolo[3,4-d]pyrimidin-4-one] | 195 to 197 | 
Cc1ccc(Cn2cnc3nn(-c4ccccc4)cc3c2=O)cc1 [Compound 51, 5-(4-methylbenzyl)-2-phenyl-2,5-dihydropyrazolo[3,4-d]-pyrimidin-4-one] | 182 to 183 | 
O=c1c2cn(-c3ccccc3)nc2ncn1Cc1c(F)cccc1F [Compound 52, 5-(2,6-difluorobenzyl)-2-phenyl-2,5-dihydropyrazolo[3,4-d]pyrimidin-4-one] | 189 to 191 | 
O=c1c2cn(-c3ccccc3)nc2ncn1Cc1ccccn1 [Compound 53, 5-(2-pyridinylmethyl)-2-phenyl-2,5-dihydropyrazolo[3,4-d]-pyrimidin-4-one] | 199 to 201 | 
O=c1c2cn(Cc3ccccc3)nc2ncn1Cc1c(F)cccc1Cl [Compound 54, 5-(2-chloro-6-fluorobenzyl)-2-benzyl-2,5-dihydropyrazolo[3,4-d]pyrimidin-4-one] | 176 to 177 | 
Cc1ccc(Cn2cnc3nn(Cc4ccccc4)cc3c2=O)cc1 [Compound 55, 5-(4-methylbenzyl)-2-benzyl-2,5-dihydropyrazolo[3,4-d]-pyrimidin-4-one] | 167 to 169 | 
O=c1c2cn(Cc3ccccc3)nc2ncn1Cc1c(F)cccc1F [Compound 56, 5-(2,6-difluorobenzyl)-2-benzyl-2,5-dihydropyrazolo[3,4-d]pyrimidin-4-one] | 173 to 174 | 
O=c1c2cn(Cc3ccccc3)nc2ncn1Cc1ccccn1 [Compound 57, 5-(2-pyridinylmethyl)-2-benzyl-2,5-dihydropyrazolo[3,4-d]-pyrimidin-4-one] | 182 to 184 | 
O=c1c2cn(Cc3ccccc3Cl)nc2ncn1Cc1ccccc1Cl [Compound 58, 2,5-bis(2-chlorobenzyl)-2,5-dihydropyrazolo[3,4-d]-pyrimidin-4-one] | 167 to 168 | logP [1]: 2.59
O=c1c2cn(Cc3ccccn3)nc2ncn1Cc1c(F)cccc1F [Compound 59, 5-(2,6-difluorobenzyl)-2-pyridin-2-ylmethyl-2,5-dihydropyrazolo[3,4-d]pyrimidin-4-one] | 174 to 175 | 
O=c1c2cn(CC3CCCO3)nc2ncn1Cc1ccccc1Cl (centres unmarked) [Compound 60, 5-(2-chlorobenzyl)-2-tetrahydrofuran-2-ylmethyl-2,5-dihydropyrazolo[3,4-d]pyrimidin-4-one] | 128 to 130 | responders at 100 mg/kg (maximal electroshock): 67%; logP [1]: 1.67
Cc1nc2n[nH]cc2c(=O)n1Cc1ccccc1Cl [Compound 61, 5-(2-chlorobenzyl)-6-methyl-2,5-dihydropyrazolo[3,4-d]-pyrimidin-4-one] | 222 to 224 | 
Cc1nc2nn(C)cc2c(=O)n1Cc1ccccc1C(F)(F)F [Compound 63, 5-(2-trifluoromethylbenzyl)-2,6-dimethyl-2,5-dihydropyrazolo[3,4-d]pyrimidin-4-one] | 192 to 193 | 
Cc1nc2nn(C)cc2c(=O)n1Cc1c(F)cccc1F [Compound 64, 5-(2,6-difluorobenzyl)-2,6-dimethyl-2,5-dihydropyrazolo[3,4-d]pyrimidin-4-one] | 201 to 202 | 
CCCC(CCC)C(=O)O [Valproate, reference compound] |  | responders at 100 mg/kg (maximal electroshock): 0%; responders at 100 mg/kg (s.c. pentetrazole): 30%
